Experimental data published in US20050159427A1, “N-acylsulfonamide apoptosis promoters” (priority 2003, published 2005).

Experiments:
[1] = tested on: A549/ATCC; test: Tumor cell viability (TABLE 1); assay type: cell-based; conditions: Homo sapiens, read-out: EC50 (50% reduction in cell viability); A549/ATCC (Non-Small Cell Lung); serum-free conditions, 48 hour treatment; mean ± SEM
[2] = tested on: PC3; test: Tumor cell viability (TABLE 1); assay type: cell-based; conditions: Homo sapiens, PC-3, read-out: EC50 (50% reduction in cell viability); PC3 (Prostate); serum-free conditions, 48 hour treatment; mean ± SEM
[3] = tested on: MDA-MB-436; test: Tumor cell viability (TABLE 1); assay type: cell-based; conditions: Homo sapiens, read-out: EC50 (50% reduction in cell viability); MDA-MB-436 (Breast); serum-free conditions, 48 hour treatment; mean ± SEM
[4] = tested on: NCI/ADR-RES; test: Tumor cell viability (TABLE 1); assay type: cell-based; conditions: Homo sapiens, read-out: EC50 (50% reduction in cell viability); NCI/ADR-RES (Breast); serum-free conditions, 48 hour treatment
[5] = tested on: SCLC xenograft; test: Small cell lung cancer xenograft tumor model; assay type: in vivo, murine
Source text: (H146 and SCLC xenograft) from human-derived small cell lung cancer isolated from smokers and nonsmokers, defective for Rb/p53 gene function, and expresseive of moderately high levels of Bcl-2.

[6] = tested on: BT-549; test: Tumor cell viability (TABLE 1); assay type: cell-based; conditions: Homo sapiens, read-out: EC50 (50% reduction in cell viability); BT-549 (Breast); serum-free conditions, 48 hour treatment; mean ± SEM
[7] = tested on: DoHH2 follicular lymphoma flank tumors; test: DoHH2 follicular lymphoma model; assay type: in vivo
[8] = tested on: acute lymphoblastoid leukemia, small cell lung cancer, prostate cancer, non-small cell lung cancer, and follicular lymphoma tumors (RS11380, DoHH2 and SuDHL-4); conditions: follicular lymphoma (RS11380, DoHH2, SuDHL-4)
[9] = tested on: PC-3 prostate carcinoma cells; test: Paclitaxel combination on PC-3 cells; assay type: cell-based
[10] = tested on: NCI-H322M; test: Tumor cell viability (TABLE 1); assay type: cell-based; conditions: Homo sapiens, read-out: EC50 (50% reduction in cell viability); NCI-H322M (Non-Small Cell Lung); serum-free conditions, 48 hour treatment; mean ± SEM
[11] = tested on: MALME-3M; test: Tumor cell viability (TABLE 1); assay type: cell-based; conditions: Homo sapiens, read-out: EC50 (50% reduction in cell viability); MALME-3M (Melanoma); serum-free conditions, 48 hour treatment; mean ± SEM
[12] = tested on: D54MG; test: Tumor cell viability (TABLE 1); assay type: cell-based; conditions: Homo sapiens, read-out: EC50 (50% reduction in cell viability); D54MG (Glioma); serum-free conditions, 48 hour treatment; mean ± SEM
[13] = tested on: OVCAR-4; test: Tumor cell viability (TABLE 1); assay type: cell-based; conditions: Homo sapiens, read-out: EC50 (50% reduction in cell viability); OVCAR-4 (Ovarian); serum-free conditions, 48 hour treatment; mean ± SEM
[14] = tested on: NCI-H226; test: Tumor cell viability (TABLE 1); assay type: cell-based; conditions: Homo sapiens, read-out: EC50 (50% reduction in cell viability); NCI-H226 (Non-Small Cell Lung); serum-free conditions, 48 hour treatment; mean ± SEM
[15] = tested on: SK-MEL-5; test: Tumor cell viability (TABLE 1); assay type: cell-based; conditions: Homo sapiens, read-out: EC50 (50% reduction in cell viability); SK-MEL-5 (Melanoma); serum-free conditions, 48 hour treatment; mean ± SEM
[16] = tested on: human tumor cell lines derived from small cell lung carcinomas and lymphoid malignancies of both T-cell and B-cell origin; conditions: small cell lung carcinoma and T-cell / B-cell lymphoid malignancy cell lines
[17] = tested on: MCF7; test: Tumor cell viability (TABLE 1); assay type: cell-based; conditions: Homo sapiens, read-out: EC50 (50% reduction in cell viability); MCF7 (Breast); serum-free conditions, 48 hour treatment; mean ± SEM
[18] = tested on: NCI-H460; test: Tumor cell viability (TABLE 1); assay type: cell-based; conditions: Homo sapiens, read-out: EC50 (50% reduction in cell viability); NCI-H460 (Non-Small Cell Lung); serum-free conditions, 48 hour treatment; mean ± SEM
[19] = tested on: OVCAR-5; test: Tumor cell viability (TABLE 1); assay type: cell-based; conditions: Homo sapiens, read-out: EC50 (50% reduction in cell viability); OVCAR-5 (Ovarian); serum-free conditions, 48 hour treatment; mean ± SEM
[20] = tested on: OVCAR-8; test: Tumor cell viability (TABLE 1); assay type: cell-based; conditions: Homo sapiens, read-out: EC50 (50% reduction in cell viability); OVCAR-8 (Ovarian); serum-free conditions, 48 hour treatment; mean ± SEM
[21] = tested on: HS-578T; test: Tumor cell viability (TABLE 1); assay type: cell-based; conditions: Homo sapiens, read-out: EC50 (50% reduction in cell viability); HS-578T (Breast); serum-free conditions, 48 hour treatment; mean ± SEM
[22] = tested on: A549 human non-small cell lung carcinoma cells; test: Paclitaxel combination on A549 cells; assay type: cell-based; conditions: A549 cells
[23] = tested on: Calu-6; test: Tumor cell viability (TABLE 1); assay type: cell-based; conditions: Homo sapiens, read-out: EC50 (50% reduction in cell viability); Calu-6 (Non-Small Cell Lung); serum-free conditions, 48 hour treatment; mean ± SEM
[24] = tested on: SF-539; test: Tumor cell viability (TABLE 1); assay type: cell-based; conditions: Homo sapiens, read-out: EC50 (50% reduction in cell viability); SF-539 (CNS); serum-free conditions, 48 hour treatment; mean ± SEM
[25] = tested on: SN12C; test: Tumor cell viability (TABLE 1); assay type: cell-based; conditions: Homo sapiens, read-out: EC50 (50% reduction in cell viability); SN12C (Renal); serum-free conditions, 48 hour treatment; mean ± SEM
[26] = established flank tumors, sustained period of time

Q: Which results are given for `CN(C)CC[C@H](CSc1ccccc1)Nc1ccc(S(=O)(=O)NC(=O)c2ccc(N3CCN(Cc4ccccc4-c4ccc(Cl)cc4)CC3)cc2)cc1[N+](=O)[O-]` [EXAMPLE 2, N-(4-(4-((4′-chloro(1,1′-biphenyl)-2-yl)methyl)piperazin-1-yl)benzoyl)-4-(((1R)-3-(dimethylamino)-1-((phenylsulfanyl)methyl)propyl)amino)-3-nitrobenzenesulfonamide]?
A: EC50 [1]: 5.2 ± 0.2 µM; EC50 [2]: 0.96 ± 0.38 µM; EC50 [3]: 3.9 ± 2.6 µM; EC50 [4]: > 10 µM; anti-tumor activity ([5]; SCLC xenograft murine model): demonstrated anti-tumor activity; anti-tumor activity compared with paclitaxel ([5]; paclitaxel near the maximum tolerated dose): equivalent to slightly better than paclitaxel; anti-tumor activity compared with cisplatin and etoposide ([5]; small cell lung cancer xenograft tumor model): superior to cisplatin and etoposide; EC50 [6]: 6.5 ± 2.3 µM; tumor regression, combination with Rituxin® [7, 26]: complete regression of a significant percentage of established DoHH2 follicular lymphoma flank tumors; tumor regression, combination with rapamycin [7, 26]: complete regression of a significant percentage of established DoHH2 follicular lymphoma flank tumors; tumor growth ([7]; model of follicular lymphoma (DOHH-2)): inhibited tumor growth; therapeutic utility in xenograft models [8]: displayed therapeutic utility; increase in efficacy of paclitaxel when administered with the compound [9]: 4.7 fold; EC50 [10]: 4.1 ± 0.8 µM; EC50 [11]: 1.9 ± 0.8 µM; EC50 [12]: 3.1 ± 2.5 µM; EC50 [13]: 22 ± 3 µM; EC50 [14]: 2.6 ± 1.1 µM; EC50 [15]: 3.7 ± 0.8 µM; therapeutic utility against human tumor cell lines [16]: displayed therapeutic utility; EC50 [17]: 2 ± 0.8 µM; EC50 [18]: 2.3 ± 1.5 µM; EC50 [19]: 1.1 µM; EC50 [20]: 3.4 ± 0.8 µM; EC50 [21]: 7.2 ± 8.2 µM; increase in efficacy of paclitaxel when administered with the compound [22]: about 4.4 fold; EC50 [23]: 0.18 ± 0.07 µM; EC50 [24]: 4.1 ± 0.6 µM; EC50 [25]: 3.2 ± 0.2 µM
